Results as given in ChEMBL document CHEMBL5252619, “Sadopeptins A and B, Sulfoxide- and Piperidone-Containing Cyclic Heptapeptides with Proteasome Inhibitory Activity from a Streptomyces sp” (J Nat Prod, 2023).
Active and inactive are the calls of the source.

Columns and labels:
Proteasome [1] = test: Inhibition of human proteasome trypsin-like activity using Boc-LRR-AMC as substrate measured for 30 mins in presence of MG132 by fluorescence based assay; assay type: subcellular; details: dose 10-50 µM
Proteasome [2] = test: Inhibition of human proteasome chymotrypsin-like activity using suc-LLVY-AMC as fluorogenic substrate measured for 30 mins in presence of MG132 by fluorescence based assay; assay type: subcellular; details: dose 10-50 µM
A549 = test: Cytotoxicity against human A549 cells assessed as reduction in cell viability up to 200 uM measured for 9 hrs by WST-8 assay; assay type: functional, cell-based
Proteasome [3] = test: Inhibition of proteasome caspase-like activity in human A549 cells at 25 uM using ZLLE-AMC as fluorogenic substrate preincubated for 15 mins followed by substrate addition and measured after 6 mins by fluorometer analysis; assay type: subcellular
Proteasome [4] = test: Inhibition of proteasome caspase-like activity in human A549 cells assessed as LC3 lipidation at 25 to 100 uM measured for 12 hrs in presence of MG132; details: dose 25-100 µM
Proteasome [5] = test: Inhibition of proteasome caspase-like activity in human A549 cells assessed as cleaved PARP level at 25 to 100 uM measured for 12 hrs in presence of MG132; details: dose 25-100 µM
Proteasome [6] = test: Inhibition of proteasome caspase-like activity in human A549 cells assessed as increase in caspase-3 level at 25 to 100 uM measured for 12 hrs in presence of MG132; assay type: subcellular; details: dose 25-100 µM

CC(C)CC(=O)N[C@@H](CCCNC(N)=O)C(=O)N[C@@H]1C(=O)N[C@@H](CC[S+](C)[O-])C(=O)N[C@H]2CC[C@@H](O)N(C2=O)[C@@H](Cc2ccccc2)C(=O)N(C)[C@@H](Cc2ccc(O)cc2)C(=O)N[C@@H](C(C)C)C(=O)O[C@@H]1C (some centres undefined)
active: inhibition (Proteasome [1]) Dose-Dependent Effect | inhibition (Proteasome [2]) Dose-Dependent Effect | Activity (A549) | inhibition (Proteasome [3]) | inhibition (Proteasome [4]) | inhibition (Proteasome [5]) | inhibition (Proteasome [6])

CCCC(=O)N[C@@H](CCCNC(N)=O)C(=O)N[C@@H]1C(=O)N[C@@H](CC[S+](C)[O-])C(=O)N[C@H]2CC[C@@H](O)N(C2=O)[C@@H](Cc2ccccc2)C(=O)N(C)[C@@H](Cc2ccc(O)cc2)C(=O)N[C@@H](C(C)C)C(=O)O[C@@H]1C (some centres undefined)
active: inhibition (Proteasome [1]) Dose-Dependent Effect | inhibition (Proteasome [2]) Dose-Dependent Effect | Activity (A549) | inhibition (Proteasome [3]) | inhibition (Proteasome [4]) | inhibition (Proteasome [5]) | inhibition (Proteasome [6])
